# Laboratory results reported in the OPERA property sets (Mansouri et al. 2018).
# Where a SMILES comes first, the peptide text is derived from it. The star is where a group is joined. NHtBu = CC(C)(C)N*
row,Structure (SMILES),logP
1,NC(=O)c1cc2ccccc2o1,1.54
2,FC(F)(F)C1(F)C(F)(F)C(F)(F)C(F)(N2C(F)(F)C(F)(F)C(F)(F)C(F)(F)C2(F)F)C(F)(F)C1(F)F (centres undefined),7.1
3,CCN(C=Nc1ccn(C2CC(O)C(CO)O2)c(=O)n1)CC (centres undefined),-0.59
4,CC1(C)CCCC(C)(C)N1[O],1.85
5,CSC(=NOC(=O)N(C)COC1OC(C(=O)O)C(O)C(O)C1O)C(=O)N(C)C (centres undefined),-2.52
6,CCCCCC1CC(C(=O)NC(C(C)O)C2OC(SC)C(O)C(O)C2O)N(C)C1 (centres undefined),0.93
7,O=c1nc(N=CN2CCCC2)ccn1C1CC(O)C(CO)O1 (centres undefined),-1.02
8,CCOc1ccccc1OCc1ccccc1CCCN1CCC(O)CC1,3.1
9,CCOC(=O)C(C)Oc1ccc(Oc2cnc3cc(F)ccc3n2)cc1 (centres undefined),3.65
10,COc1cccc(OC)c1-c1nc2ccncc2[nH]1,1.66
11,CCCN1C(=O)C(=O)c2ccccc2C1=O,1.6
12,CC(=O)N[C@@H](CO)C(=O)N[C@H](C(N)=O)C(C)C (Ac-Ser-Val-NH2),-1.53
13,CC(=O)N(CCO)c1c(I)c(C(=O)NC(CO)CO)c(I)c(C(=O)NC(CO)CO)c1I,-2.33
14,CCCCOc1cccc(NC(=O)OCCN2CCOCC2)c1,3.62
15,CNC(Cc1ccccc1)C(=O)O (centres undefined),-1.53
16,Cn1c([N+](=O)[O-])cnc1-c1ccccc1,1.58
17,O=C(NCCCO)C(F)(F)Cn1ccnc1[N+](=O)[O-],-0.64
18,CCc1nc(C)c([N+](=O)[O-])[nH]1,0.76
19,CC(C)(C)NC(=O)C1CN(S(=O)(=O)c2cccc3cccnc23)CCN1CC(O)CC(Cc1ccccc1)C(=O)NC1c2ccccc2CC1O (centres undefined),3.7
20,CCN(C=Nc1ccn(C2OC(CO)C(O)C2O)c(=O)n1)CC (centres undefined),-0.76
21,CC(C)OC(=O)n1cc(F)c(=O)[nH]c1=O,0.2
22,Oc1ccc(I)c2cccnc12,3.27
23,CCN1C(=O)C(=O)c2c(Cl)cccc2C1=O,1.43

row,Structure (SMILES),logP
1,CC(C)(C)C(=O)CC(C(O)C(C)(C)C)n1cncn1 (centres undefined),1.95
2,NC(=O)c1ccccc1N=NN1CCC1,2.91
3,CC(C)CCCNC(=O)C1(O)C(C)CC2C3CCC4=CC(=O)C=CC4(C)C3(F)C(O)CC21C (centres undefined),3.93
4,O=C(NCCO)C(F)(F)Cn1cnc([N+](=O)[O-])n1,-0.77
5,Cc1cc([N+](=O)[O-])ccc1NN=C(C#N)C#N,3.55
6,COc1cccc(C(=O)NP(=O)(N2CC2)N2CC2)c1,0.86
7,CCn1cc(C(=O)O)c(=O)c2ccc(C)nc21,1.59
8,Clc1ccc(-c2ccc(Cl)c(Cl)c2)c(Cl)c1,6.31
9,CC(NC(=O)N(CCCl)N=O)C(=O)O (centres undefined),0.78
10,CC(C)(C)C(=O)OCOC(=O)C1=C(CSc2nncs2)CSC2C(NC(=O)Cn3cnnn3)C(=O)N12 (centres undefined),1.45
11,C#CCOc1c(Cl)cc(NC=NOCC=CCl)cc1Cl,3.9
12,COc1nc(C(Cl)(Cl)Cl)nc(C(Cl)(Cl)Cl)n1,3.64
13,CCOC(=O)C(C)Oc1ccc(Oc2cnc3cc(C)ccc3n2)cc1 (centres undefined),4.11
14,C#CCOc1c(Cl)cc(NC=NOCC=C)cc1Cl,3.7
15,CCN1C(=O)NC(=O)C(=O)C1=O,-0.32
16,CC(C)(C)NC(=O)C1CN(C(=O)OCc2ccccc2)CCN1CC(O)CC(Cc1ccccc1)C(=O)NC1c2ccccc2CC1O (centres undefined),4.67
17,O=C(O)CCCCCCCc1ccccc1,4.09
18,c1ccc(-c2ccc(C(c3ccccc3)n3ccnc3)cc2)cc1 (centres undefined),4.77
19,CCNC(=O)C1(O)C(C)CC2C3CCC4=CC(=O)C=CC4(C)C3(F)C(O)CC21C (centres undefined),2.07
20,CN(C)C(=O)COC(=O)c1cc(S(N)(=O)=O)c(Cl)cc1NCc1ccco1,1.18
21,O=C(O)c1ccccc1N1C(=O)CCC1=O,1.55
22,O=[N+]([O-])c1cnc(C=Cc2ccccc2)n1CCO,2.25
23,COc1ccccc1SCc1ccccc1CCCN1CCC(O)CC1,3.58

row,Structure (SMILES),logP
1,C#CCOc1c(Cl)cc(NC=NOC(C)C)cc1Cl,3.9
2,CCOC(=O)c1ccc(N=NN(C)C)cc1,3.66
3,O=NN(CCCl)C(=O)NC1CCCCC1C(=O)O (centres undefined),2.01
4,CCCCCc1cc(CCCCN2CC(=O)c3ccccc3C2=O)c2c(c1)OC(C)(C)C1CC=C(C)CC21 (centres undefined),9.07
5,ON=Cc1nnc(-c2ccccc2)o1,2.03
6,CN(C)C=Nc1ccn(C2CC(O)C(CO)O2)c(=O)n1 (centres undefined),-1.54
7,C#CCC(O)(c1cccnc1)c1ccc(Cl)c(Cl)c1 (centres undefined),2.42
8,COCCCNc1nc(NC(C)C)nc(SC)n1,2.82
9,CNC(=O)C=C(C)OP(=O)(OC)OC,-0.2
10,CCC(C)N1C(=O)C(=O)c2ccccc2C1=O (centres undefined),2.15
11,COC(=O)NCCn1c([N+](=O)[O-])cnc1C,0.02
12,O=C1NC(=O)C(=O)C(=O)N1,-1.84
13,Cc1cn(C2CC(N=[N+]=[N-])C(COC(=O)CCNC(=O)C34CC5CC(CC(C5)C3)C4)O2)c(=O)[nH]c1=O (centres undefined),2.14
14,CC12CCC(=O)C=C1CC(C#N)C1C2CCC2(C)C1CCC21CCC(=O)O1 (centres undefined),1.67
15,CC(=O)NC(C)C(=O)N1CCCC1C(=O)NC(C)C(=O)NC(C)(C)C (stereo not drawn) (Ac-Ala-Pro-Ala-NHtBu; configuration not given here),-0.39
16,CCCCCc1cc(OCc2ccc(-c3ccccc3)cc2)c2c(c1)OC(C)(C)C1CC=C(C)CC21 (centres undefined),10.9
17,COC(=O)n1cnc(CC(NC(=O)C2CCC(=O)N2)C(=O)N2CCCC2C(N)=O)c1 (centres undefined),-1.88
18,c1ccc2c3c([nH]c2c1)CN1CCNCC1C3 (centres undefined),0.36
19,COC1(NC(=O)CSC(F)F)C(=O)N2C(C(=O)OCOC(=O)C(C)(C)C)=C(CSc3nnnn3C)CSC21 (centres undefined),2.31
20,CN(C)N=Nc1cccc(C(N)=O)c1,1.3
21,O=c1[nH]nc(SCc2ccccc2)[nH]1,1.47
22,COC(=O)c1ccc2[nH]ccc2c1,2.58
23,CCCCCOc1ccc2ccc(=O)oc2c1,3.92

row,Structure (SMILES),logP
1,Clc1ccc(Cl)c(-c2ccc(Cl)c(Cl)c2Cl)c1,6.85
2,Clc1cc(Cl)c(Cl)c(-c2cc(Cl)cc(Cl)c2Cl)c1,7.07
3,Nc1nc(NCCO)c(Cl)nc1[N+](=O)[O-],0.12
4,CCCNc1nc(C(Cl)(Cl)Cl)nc(C(Cl)(Cl)Cl)n1,4.09
5,O=C(N/N=C/c1ccc[nH]1)Nc1ccccc1,2.96
6,Cc1ccc(C(=O)OCCN(C)C)cc1,2.53
7,COc1ccc(COC(C(=O)O)c2ccccc2)cc1Cl (centres undefined),2.45
8,CN(C)N=Nc1ccc([N+](=O)[O-])cc1,3.25
9,CN(C)c1ccc2c(c1)C(=O)N(OS(C)(=O)=O)C2=O,1.65
10,CCN1C(=O)C(=O)c2cc3ccccc3cc2C1=O,2.47
11,Cc1cn(C2CC(N=[N+]=[N-])C(COC(=O)CCCNC(=O)C34CC5CC(CC(C5)C3)C4)O2)c(=O)[nH]c1=O (centres undefined),2.47
12,Fc1ccc(SCc2ccccc2CCCN2CCOCC2)cc1,3.69
13,Cc1cccc(C)c1N,1.84
14,CC1=C(N2CC2)C(=O)C(Br)=C(N2CC2)C1=O,1.36
15,COc1ccc(Cc2cccc(-c3c(O)c4ccc(Cl)cc4[nH]c3=O)c2)cc1,4.8
16,CCCCC(=O)OC(C(=O)NC1C(=O)N2C(C(=O)O)=C(C)CSC12)c1ccccc1 (centres undefined),2.23
17,COCC(F)Cn1cnc([N+](=O)[O-])n1 (centres undefined),-0.04
18,CN(C)c1nc(=O)cc(-c2ccc([N+](=O)[O-])o2)s1,0.55
19,COC1CC(OC2CCC3(C)C(CCC4C3CCC3(C)C(C5=CC(=O)OC5)C(OC(C)=O)CC43OC(C)=O)C2)OC(C)C1O (centres undefined),2.95
20,Cc1cccc(OCCO)c1,1.76
